{
  "source": "patent US12109224B2",
  "about": "“USB1 directed regulation of miRNAs related hematopoietic differentiation and affected in multiple forms of leukemia” (The Regents of the University of Colorado, a body corporate, priority 2020, dated 2024)",
  "type_in_all_cases": "cell-based, human",
  "key": {"USB1 mutant cells [1]": {"tested_on": "USB1 mutant cells", "experiment": "miRNA levels by qRT-PCR in USB1 mutant cells", "conditions": "normalized to 5s rRNA; RG7834 (104) vs DMSO; FIG. 4A"}, "[2]": {"tested_on": "undifferentiated USB1 mutant cells", "experiment": "3′ end sequencing of miR-125a-5p in undifferentiated USB1 mutant cells", "conditions": "RG7834 1 μM, FIG. 4B", "procedure": "3′ end library preparation and analysis: 3′ end libraries were prepared as previously described (23, 41). Briefly, 30 ng of DNA-free rRNA-depleted RNA was treated with Antarctic Phosphatase (NEB), and two RNA appendices containing a unique barcode were ligated to equal amount of the input RNA using T4 RNA Ligase I (NEB). Reactions were cleaned up using RNA clean & concentrator kit (Zymo Research) and cDNA was prepared using an RNA appendix-specific primer and Superscript III RT (Invitrogen). cDNA was used as a template for […] using a miRNA-specific reverse primer containing a barcode, a universal primer and Phusion HF DNA polymerase (NEB). RACE products were separated on a 1% Agarose TAE gel, 100-180 bp DNA fragments were excised and DNA was eluted. Illumina-compatible libraries were prepared by amplifying RACE product using Illumina primers, and sequenced on a HiSeq lane (Illumina) using the 2×150 kit. Libraries were demultiplexed and unique reads aligning to the exact miRNA sequence were quantified. miRNA 3′ ends were obtained from miRbase v22."}, "USB1 mutant cells [3]": {"tested_on": "USB1 mutant cells", "experiment": "Colony forming culture (CFC) assay of definitive hematopoietic progenitors", "conditions": "chemical inhibition of PAPD5; RG7834 0.5 μM vs DMSO; FIG. 4E", "procedure": "(§1) Hematopoietic differentiation: Definitive hematopoietic differentiation from hESCs was performed as previously described (14). Briefly, hESCs were cultured on Matrigel (BD Bioscience) for 1 day to deplete MEFs. On Day 0, cells were dissociated with 0.05% trypsin (Gibco) for 1 min and incubated with serumfree media [SFD: IMDM supplemented with 25% Hams F12, 0.05% BSA, 1× B27 supplement (Gibco), 0.5× N2 supplement (Gibco), 2 mM L-glutamine (Gibco), 50 μg/ml ascorbic acid (Gibco), 4×10−4 M monothioglycerol (Millipore Sigma), and 150 μg/ml transferrin] supplemented with 10 ng/ml BMP4 on 6 well plates coated with a 5% poly(2-hydroxyethyl methacrylate) solution (Millipore Sigma). On Day 1, one additional volume of SFD was added, containing 10 ng/ml BMP4 and 5 ng/ml bFGF. On Day 2, media was changed to fresh SFD supplemented with 10 ng/ml BMP4, 5 ng/ml bFGF, 3 μM CHIR99021, and 6 μM SB-431542. On Day 3, media was changed to StemPro-34 media [SP-34: StemPro-34 supplemented with 2 mM L-glutamine (Gibco), 1 mM ascorbic acid (Gibco), 4×10−4M monothioglycerol, 150 μg/ml transferrin] supplemented with 15 ng/ml VEGF and 5 ng/ml bFGF. On Day 6, one additional volume of SP-34 supplemented with 15 ng/ml VEGF, 5 ng/ml bFGF, 20 ng/ml IL-6, 50 ng/ml IGF1, 10 ng/ml IL-11, 200 ng/ml SCF, and 4 IU EPO was added. […]"}, "[4]": {"tested_on": "USB1 c.531delA CD34+/CD45+ cells", "experiment": "Flow cytometry of hematopoietic CD34+/CD45+ progenitor cells", "conditions": "RG7834 0.5 μM; FIG. 10B", "procedure": "as §1"}, "USB1 mutant cells [5]": {"tested_on": "USB1 mutant cells", "experiment": "Flow cytometry following neutrophil differentiation", "conditions": "CD45+CD14-CD11b+CD16 cells; FIG. 4F", "procedure": "Flow cytometry and Cell sorting: Flow cytometry analysis was performed using the BD LSR Fortessa and FACS sorting by BD FACS Aria II at the Department of Pathology & Immunology Flow Cytometry Core at Washington University in St. Louis. The antibodies were used as follows; KDR (clone 89106), CD235a-APC (clone HIR2), CD34-APC (clone 8G12), CD34-PE-Cy7 (clone 4H11), CD43-PE or -FITC (clone 1G10), CD73-PE (clone AD2), CD184-APC (clone 12G5), CD45-PE (clone HI30), CD14-PE Cy7 (clone MφP9), CD15-BV421 (W6D3), CD66b-FITC (clone G10F5). All antibodies were purchased from BD Biosciences, but CD15 and CD66b were obtained from BioLegend. For cell cycle analysis, Click-iT EdU Alexa Fluor 488 kit (Life Technologies) was used following manufacturer's instructions."}},
  "data": [
    {"smiles": "COCCCOc1cc2c(cc1OC)-c1cc(=O)c(C(=O)O)cn1[C@H](C(C)C)C2", "note": "[RG7834]", "values": [
      {"measurement": "levels of miRNAs that were reduced in USB1 mutant cells", "setting": "USB1 mutant cells [1]", "result": "rescued"},
      {"measurement": "non-adenylated form of miR-125a-5p", "setting": "[2]", "result": "increase"},
      {"measurement": "oligoadenylated miR-125a-5p", "setting": "[2]", "result": "decrease"},
      {"measurement": "colony-formation potential in USB1 mutants", "setting": "USB1 mutant cells [3]", "result": "rescued"},
      {"measurement": "hematopoietic CD34+/CD45+ progenitor cells", "setting": "[4]", "result": "increase"},
      {"measurement": "neutrophil formation in USB1 mutant cells", "setting": "USB1 mutant cells [5]", "result": "improved"}
    ]}
  ]
}
